Laboratory results: patent publication US20160002204A1 (Board of Regents, The University of Texas System, priority 2014, published 2016)

Key:
[1] = target: T1, GLS1 (purified recombinant human GAC) (Homo sapiens, UniProt O94925); experiment: GLS1 enzymatic activity assay (dual-coupled, Amplex UltraRed/resorufin); type: biochemical
T1 sequence (O94925 55-598 isoform O94925-3 limits assumed): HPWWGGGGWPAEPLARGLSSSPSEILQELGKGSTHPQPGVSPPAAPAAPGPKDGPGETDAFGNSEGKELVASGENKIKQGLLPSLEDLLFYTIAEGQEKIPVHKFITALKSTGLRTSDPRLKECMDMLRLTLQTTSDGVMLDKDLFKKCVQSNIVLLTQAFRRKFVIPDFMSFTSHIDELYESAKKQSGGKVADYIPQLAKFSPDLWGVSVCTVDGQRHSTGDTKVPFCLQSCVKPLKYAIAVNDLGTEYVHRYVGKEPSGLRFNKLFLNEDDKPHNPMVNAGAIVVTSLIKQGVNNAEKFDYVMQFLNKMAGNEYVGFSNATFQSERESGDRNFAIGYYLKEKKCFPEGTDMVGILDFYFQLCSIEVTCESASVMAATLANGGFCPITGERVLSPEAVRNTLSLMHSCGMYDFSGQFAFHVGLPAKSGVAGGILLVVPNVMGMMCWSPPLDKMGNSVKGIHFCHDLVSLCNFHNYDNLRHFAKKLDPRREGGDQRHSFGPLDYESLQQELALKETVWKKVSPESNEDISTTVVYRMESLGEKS
Method in brief: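 In this coupled fluorometric format, phosphate-activated GAC (2 nM, 50 mM phosphate) is pre-exposed to compound for 10 min before 1 mM glutamine addition. Product is tracked as resorufin (530/590 nm) over time or at 20 min, and potency is derived by logistic fitting.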

[2] = test system: A549 cells; experiment: A549 proliferation (viability) assay, Cell Titer Fluor, 72 hours; type: cell-based; conditions: Homo sapiens
Method in brief: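 Fluorescence read-out (Cell Titer Fluor, 30 min at 37 °C after reagent) after 72 h compound exposure of A549 cells; EC50 by four-parameter logistic curve fit. Cells: 1000/well, RPMI 1640 + 10% dialyzed FBS, 0.5% DMSO final.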

IC50 [1] [µM] | EC50 [2] [µM] | Compound
< 0.1 | 0.1 to 0.5 | O=C(Nc1ccn(CCCCn2cc(C(=O)NCc3cccc(OC(F)(F)F)c3)nn2)c(=O)c1)OC1CCC(F)(F)CC1 [Example 174, 4,4-difluorocyclohexyl N-(2-oxo-1-{4-[4-({[3-(trifluoro-methoxy)phenyl]methyl}carbamoyl)-1H-1,2,3-triazol-1-yl]butyl}-1,2-dihydropyridin-4-yl)carbamate]
< 0.1 | < 0.1 | O=C(CC1CCCCC1)Nc1ccn(CCC(F)Cn2cc(C(=O)NCc3cccc(OC(F)(F)F)c3)nn2)c(=O)c1 (stereo not shown) [Example 175, 1-{4-[4-(2-cyclohexylacetamido)-2-oxo-1,2-dihydropyridin-1-yl]-2-fluorobutyl}-N-{[3-(trifluoromethoxy)phenyl]methyl}-1H-1,2,3-triazole-4-carboxamide]
< 0.1 | < 0.1 | O=C(CC1CCCCC1)Nc1ccn(CCC(F)Cn2cc(C(=O)NCc3cc(OC(F)(F)F)ccc3F)nn2)c(=O)c1 (stereo not shown) [Example 176, 1-{4-[4-(2-cyclohexylacetamido)-2-oxo-1,2-dihydropyridin-1-yl]-2-fluorobutyl}-N-{[2-fluoro-5-(trifluoromethoxy)phenyl]methyl}-1H-1,2,3-triazole-4-carboxamide]
< 0.1 | < 0.1 | Cc1ccc(CNC(=O)c2cn(CC(F)CCn3ccc(NC(=O)CC4CCCCC4)cc3=O)nn2)cn1 (stereo not shown) [Example 177, 1-{4-[4-(2-cyclohexylacetamido)-2-oxo-1,2-dihydropyridin-1-yl]-2-fluorobutyl}-N-[(6-methylpyridin-3-yl)methyl]-1H-1,2,3-triazole-4-carboxamide]
< 0.1 | < 0.1 | O=C(CC1CCCCC1)Nc1ccn(CCC(F)Cn2cc(C(=O)NCc3cc(C(F)(F)F)ccn3)nn2)c(=O)c1 (stereo not shown) [Example 178, 1-{4-[4-(2-cyclohexylacetamido)-2-oxo-1,2-dihydropyridin-1-yl]-2-fluorobutyl}-N-{[4-(trifluoromethyl)pyridin-2-yl]methyl}-1H-1,2,3-triazole-4-carboxamide]
< 0.1 | 0.5 to 5 | O=C(CC1CCS(=O)(=O)CC1)Nc1ccn(CCCCn2cc(C(=O)NCc3cccc(OC(F)(F)F)c3)nn2)c(=O)c1 [Example 179, 1-(4-{4-[2-(1,1-dioxo-1$l^6-thian-4-yl)acetamido]-2-oxo-1,2-dihydropyridin-1-yl}butyl)-N-{[3-(trifluoromethoxy)phenyl]methyl}-1H-1,2,3-triazole-4-carboxamide]
< 0.1 | < 0.1 | O=C(Cc1ccccc1)Nc1ccn(CCC(F)Cn2cc(C(=O)NCc3cccc(OC(F)(F)F)c3)nn2)c(=O)c1F (stereo not shown) [Example 180]
< 0.1 | 0.1 to 0.5 | O=C(CC1CCCCC1)Nc1ccn(CCCCn2cc(C(=O)NCc3cc(Cl)ccc3F)nn2)c(=O)c1 [Example 181, N-[(5-chloro-2-fluorophenyl)methyl]-1-{4-[4-(2-cyclohexylacetamido)-2-oxo-1,2-dihydropyridin-1-yl]butyl}-1H-1,2,3-triazole-4-carboxamide]
< 0.1 | 0.1 to 0.5 | O=C(Cc1ccccn1)Nc1ccn(CCC(F)Cn2cc(C(=O)NCc3cc(OC(F)(F)F)ccc3F)nn2)c(=O)c1 (stereo not shown) [Example 182, 1-(2-fluoro-4-{2-oxo-4-[2-(pyridin-2-yl)acetamido]-1,2-dihydropyridin-1-yl}butyl)-N-{[2-fluoro-5-(trifluoromethoxy)phenyl]methyl}-1H-1,2,3-triazole-4-carboxamide]
< 0.1 | 0.5 to 5 | O=C(Cc1ccccn1)Nc1ccn(CCC(F)Cn2cc(C(=O)NCc3cccc(C(F)(F)F)c3)nn2)c(=O)c1 (stereo not shown) [Example 183, 1-(2-fluoro-4-{2-oxo-4-[2-(pyridin-2-yl)acetamido]-1,2-dihydropyridin-1-yl}butyl)-N-{[3-(trifluoromethyl)phenyl]methyl}-1H-1,2,3-triazole-4-carboxamide]
< 0.1 | < 0.1 | CO[C@H](C(=O)Nc1ccn(CCC(F)Cn2cc(C(=O)NCc3cccc(OC(F)(F)F)c3)nn2)c(=O)c1)c1ccccc1 (stereo partly drawn) [Example 184, 1-(2-fluoro-4-{4-[(2S)-2-methoxy-2-phenylacetamido]-2-oxo-1,2-dihydropyridin-1-yl}butyl)-N-{[3-(trifluoromethoxy)phenyl]methyl}-1H-1,2,3-triazole-4-carboxamide]
< 0.1 | 0.5 to 5 | COCCOc1cccc(CC(=O)Nc2ccn(CCC(F)Cn3cc(C(=O)NCc4cccc(OC(F)(F)F)c4)nn3)c(=O)c2)c1 (stereo not shown) [Example 185, 1-[2-fluoro-4-(4-{2-[3-(2-methoxyethoxy)phenyl]acetamido}-2-oxo-1,2-dihydropyridin-1-yl)butyl]-N-{[3-(trifluoromethoxy)phenyl]methyl}-1H-1,2,3-triazole-4-carboxamide]
< 0.1 | < 0.1 | CO[C@@H](C(=O)Nc1ccn(CCC(F)Cn2cc(C(=O)NCc3cccc(OC(F)(F)F)c3)nn2)c(=O)c1)c1ccccc1 (stereo partly drawn) [Example 186, 1-(2-fluoro-4-{4-[(2R)-2-methoxy-2-phenylacetamido]-2-oxo-1,2-dihydropyridin-1-yl}butyl)-N-{[3-(trifluoromethoxy)phenyl]methyl}-1H-1,2,3-triazole-4-carboxamide]
< 0.1 | < 0.1 | O=C(CC1CCCCO1)Nc1ccn(CCC(F)Cn2cc(C(=O)NCc3cccc(OC(F)(F)F)c3)nn2)c(=O)c1 (stereo not shown) [Example 187, 1-(2-fluoro-4-{4-[2-(oxan-2-yl)acetamido]-2-oxo-1,2-dihydropyridin-1-yl}butyl)-N-{[3-(trifluoromethoxy)phenyl]methyl}-1H-1,2,3-triazole-4-carboxamide]
0.5 to 5 | > 5 | N#CCC(=O)Nc1ccn(CCC(F)Cn2cc(C(=O)NCc3cccc(OC(F)(F)F)c3)nn2)c(=O)c1 (stereo not shown) [Example 188, 1-{4-[4-(2-cyanoacetamido)-2-oxo-1,2-dihydropyridin-1-yl]-2-fluorobutyl}-N-{[3-(trifluoromethoxy)phenyl]methyl}-1H-1,2,3-triazole-4-carboxamide]
0.1 to 0.5 | > 5 | Cn1ccnc1CC(=O)Nc1ccn(CCC(F)Cn2cc(C(=O)NCc3cccc(OC(F)(F)F)c3)nn2)c(=O)c1 (stereo not shown) [Example 189, 1-(2-fluoro-4-{4-[2-(1-methyl-1H-imidazol-2-yl)acetamido]-2-oxo-1,2-dihydropyridin-1-yl}butyl)-N-{[3-(trifluoromethoxy)phenyl]methyl}-1H-1,2,3-triazole-4-carboxamide]
< 0.1 | 0.5 to 5 | O=C(CC1CCCCC1)Nc1ccn(CCCCn2cc(C(=O)NCc3ccccn3)nn2)c(=O)c1 [Example 190, 1-{4-[4-(2-cyclohexylacetamido)-2-oxo-1,2-dihydropyridin-1-yl]butyl}-N-(pyridin-2-ylmethyl)-1H-1,2,3-triazole-4-carboxamide]
< 0.1 | 0.1 to 0.5 | O=C(CC1CCCCC1)Nc1ccn(CCCCn2cc(C(=O)NCc3cccnc3)nn2)c(=O)c1 [Example 191, 1-{4-[4-(2-cyclohexylacetamido)-2-oxo-1,2-dihydropyridin-1-yl]butyl}-N-(pyridin-3-ylmethyl)-1H-1,2,3-triazole-4-carboxamide]
0.1 to 0.5 | > 5 | O=C(CC1CCCCC1)Nc1ccn(CCCCn2cc(C(=O)NC(CO)c3ccccc3)nn2)c(=O)c1 (stereo not shown) [Example 192, 1-{4-[4-(2-cyclohexylacetamido)-2-oxo-1,2-dihydropyridin-1-yl]butyl}-N-(2-hydroxy-1-phenylethyl)-1H-1,2,3-triazole-4-carboxamide]
0.1 to 0.5 | 0.5 to 5 | CC(NC(=O)c1cn(CCCCn2ccc(NC(=O)CC3CCCCC3)cc2=O)nn1)c1cccc(OC(F)(F)F)c1 (stereo not shown) [Example 193, 1-{4-[4-(2-cyclohexylacetamido)-2-oxo-1,2-dihydropyridin-1-yl]butyl}-N-{1-[3-(trifluoromethoxy)phenyl]ethyl}-1H-1,2,3-triazole-4-carboxamide]
< 0.1 | < 0.1 | O=C(CC1CCCCC1)Nc1ccn(CCCCn2cc(C(=O)NCc3cc(C(F)(F)F)ccn3)nn2)c(=O)c1 [Example 194, 1-{4-[4-(2-cyclohexylacetamido)-2-oxo-1,2-dihydropyridin-1-yl]butyl}-N-{[4-(trifluoromethyl)pyridin-2-yl]methyl}-1H-1,2,3-triazole-4-carboxamide]
0.1 to 0.5 | 0.5 to 5 | Cc1ccc(CNC(=O)c2cn(CC(F)CCn3ccc(NC(=O)CC4CCCCO4)cc3=O)nn2)cn1 (stereo not shown) [Example 195, 1-(2-fluoro-4-{4-[2-(oxan-2-yl)acetamido]-2-oxo-1,2-dihydropyridin-1-yl}butyl)-N-[(6-methylpyridin-3-yl)methyl]-1H-1,2,3-triazole-4-carboxamide]
< 0.1 | 0.5 to 5 | Cc1ccc(CNC(=O)c2cn(CC(F)CCn3ccc(NC(=O)CC4CCCOC4)cc3=O)nn2)cn1 (stereo not shown) [Example 196, 1-(2-fluoro-4-{4-[2-(oxan-3-yl)acetamido]-2-oxo-1,2-dihydropyridin-1-yl}butyl)-N-[(6-methylpyridin-3-yl)methyl]-1H-1,2,3-triazole-4-carboxamide]
